PubChem BioAssay (NCI)
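Growth conditions: 96-well plates. Treatment: test compound, 48 hours, 5 concentrations. Analysis: linear interpolation between bracketing concentrations; unreached endpoints set to highest concentration. The concentration for 50% growth inhibition is given as GI50. The concentration for full growth arrest is given as TGI.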

Tests used:
Assay in all cases: DTP human tumour cell line panel, 48 h
NCI-H23 lung = test system: NCI-H23 lung
OVCAR-4 ovarian = test system: OVCAR-4 ovarian
MDA-MB-231 breast = test system: MDA-MB-231 breast
SF-539 CNS = test system: SF-539 CNS
HCC-2998 colon = test system: HCC-2998 colon
M14 melanoma = test system: M14 melanoma
RXF 393 renal = test system: RXF 393 renal
HT29 colon = test system: HT29 colon
UACC-62 melanoma = test system: UACC-62 melanoma
LOX IMVI melanoma = test system: LOX IMVI melanoma
HCT-116 colon = test system: HCT-116 colon
ACHN renal = test system: ACHN renal
SK-OV-3 ovarian = test system: SK-OV-3 ovarian
786-0 renal = test system: 786-0 renal
HOP-62 NSCLC = test system: HOP-62 NSCLC
A549 NSCLC = test system: A549 NSCLC
T-47D breast = test system: T-47D breast
SK-MEL-28 melanoma = test system: SK-MEL-28 melanoma
CAKI-1 renal = test system: CAKI-1 renal
SF-295 CNS = test system: SF-295 CNS
OVCAR-8 ovarian = test system: OVCAR-8 ovarian
OVCAR-5 ovarian = test system: OVCAR-5 ovarian
UACC-257 melanoma = test system: UACC-257 melanoma
SF-268 CNS = test system: SF-268 CNS
SNB-19 CNS = test system: SNB-19 CNS
EKVX NSCLC = test system: EKVX NSCLC
NCI-H522 lung = test system: NCI-H522 lung
U251 CNS = test system: U251 CNS
MOLT-4 leukemia = test system: MOLT-4 leukemia
SK-MEL-5 melanoma = test system: SK-MEL-5 melanoma
SN12C renal = test system: SN12C renal
NCI-H226 lung = test system: NCI-H226 lung
A498 renal = test system: A498 renal
CCRF-CEM leukemia = test system: CCRF-CEM leukemia
HS 578T breast = test system: HS 578T breast
SK-MEL-2 melanoma = test system: SK-MEL-2 melanoma
SW-620 colon = test system: SW-620 colon
RPMI-8226 leukemia = test system: RPMI-8226 leukemia
SNB-75 CNS = test system: SNB-75 CNS
MDA-MB-435 = test system: MDA-MB-435
OVCAR-3 ovarian = test system: OVCAR-3 ovarian
HOP-92 NSCLC = test system: HOP-92 NSCLC
COLO 205 colon = test system: COLO 205 colon
K-562 leukemia = test system: K-562 leukemia
BT-549 breast = test system: BT-549 breast
TK-10 renal = test system: TK-10 renal
HCT-15 colon = test system: HCT-15 colon
KM12 colon = test system: KM12 colon
MCF7 breast = test system: MCF7 breast
PC-3 prostate = test system: PC-3 prostate
IGROV1 ovarian = test system: IGROV1 ovarian
NCI/ADR-RES ovarian = test system: NCI/ADR-RES ovarian
DU-145 prostate = test system: DU-145 prostate
UO-31 renal = test system: UO-31 renal
SR leukemia = test system: SR leukemia
NCI-H460 lung = test system: NCI-H460 lung
HL-60(TB) leukemia = test system: HL-60(TB) leukemia
MALME-3M melanoma = test system: MALME-3M melanoma

## Cc1ccc(S(=O)(=O)CC2CCCn3c2c(C#N)c2ccccc23)cc1 (configuration not stated)
NCI-H23 lung
  TGI: > 100 µM
OVCAR-4 ovarian
  TGI: > 100 µM
MDA-MB-231 breast
  TGI: > 100 µM
SF-539 CNS
  TGI: > 100 µM
HCC-2998 colon
  TGI: > 100 µM
M14 melanoma
  TGI: > 100 µM
RXF 393 renal
  TGI: > 100 µM
HT29 colon
  TGI: > 100 µM
UACC-62 melanoma
  TGI: > 100 µM
LOX IMVI melanoma
  TGI: > 100 µM
HCT-116 colon
  TGI: > 100 µM
ACHN renal
  TGI: > 100 µM
SK-OV-3 ovarian
  TGI: > 100 µM
786-0 renal
  TGI: > 100 µM
HOP-62 NSCLC
  TGI: > 100 µM
A549 NSCLC
  TGI: > 100 µM
T-47D breast
  TGI: > 100 µM
SK-MEL-28 melanoma
  TGI: > 100 µM
CAKI-1 renal
  TGI: > 100 µM
SF-295 CNS
  TGI: > 100 µM
OVCAR-8 ovarian
  TGI: > 100 µM
OVCAR-5 ovarian
  TGI: > 100 µM
UACC-257 melanoma
  TGI: > 100 µM
SF-268 CNS
  TGI: > 100 µM
SNB-19 CNS
  TGI: > 100 µM
EKVX NSCLC
  TGI: > 100 µM
NCI-H522 lung
  TGI: > 100 µM
U251 CNS
  TGI: > 100 µM
MOLT-4 leukemia
  TGI: > 100 µM
SK-MEL-5 melanoma
  TGI: > 100 µM
SN12C renal
  TGI: > 100 µM
NCI-H226 lung
  TGI: > 100 µM
A498 renal
  TGI: > 100 µM
CCRF-CEM leukemia
  TGI: > 100 µM
HS 578T breast
  TGI: > 100 µM
SK-MEL-2 melanoma
  TGI: > 100 µM
SW-620 colon
  TGI: > 100 µM
RPMI-8226 leukemia
  TGI: > 100 µM
SNB-75 CNS
  TGI: > 100 µM
MDA-MB-435
  TGI: > 100 µM
OVCAR-3 ovarian
  TGI: > 100 µM
HOP-92 NSCLC
  TGI: > 100 µM
COLO 205 colon
  TGI: > 100 µM
K-562 leukemia
  TGI: > 100 µM
BT-549 breast
  TGI: > 100 µM
TK-10 renal
  TGI: > 100 µM
HCT-15 colon
  TGI: > 100 µM
KM12 colon
  TGI: > 100 µM
MCF7 breast
  TGI: > 100 µM
PC-3 prostate
  TGI: > 100 µM
IGROV1 ovarian
  TGI: > 100 µM
NCI/ADR-RES ovarian
  TGI: > 100 µM
DU-145 prostate
  TGI: > 100 µM
UO-31 renal
  TGI: > 100 µM

## c1ccc2c(c1)ccc1c3ccccc3c(NCCCCN3CCCCC3)cc21
HCC-2998 colon
  GI50: 1.75 µM
  TGI: 3.36 µM
HT29 colon
  GI50: 3.5 µM
  TGI: > 100 µM
A549 NSCLC
  GI50: 3.1 µM
  TGI: > 100 µM
OVCAR-5 ovarian
  GI50: 1.69 µM
  TGI: 3.2 µM
KM12 colon
  GI50: 1.75 µM
  TGI: 3.25 µM

## O=C1/C(=C/C=C/c2ccccc2)CCC1CNc1ccc(Br)cc1 (configuration not stated)
NCI-H23 lung
  TGI: > 100 µM
SR leukemia
  TGI: > 100 µM
OVCAR-4 ovarian
  TGI: > 100 µM
MDA-MB-231 breast
  TGI: > 100 µM
SF-539 CNS
  TGI: > 100 µM
HCC-2998 colon
  TGI: > 100 µM
M14 melanoma
  TGI: > 100 µM
RXF 393 renal
  TGI: > 100 µM
HT29 colon
  TGI: > 100 µM
UACC-62 melanoma
  TGI: > 100 µM
LOX IMVI melanoma
  TGI: > 100 µM
HCT-116 colon
  TGI: > 100 µM
ACHN renal
  TGI: > 100 µM
SK-OV-3 ovarian
  TGI: > 100 µM
786-0 renal
  TGI: > 100 µM
HOP-62 NSCLC
  TGI: > 100 µM
A549 NSCLC
  TGI: > 100 µM
T-47D breast
  TGI: > 100 µM
SK-MEL-28 melanoma
  TGI: > 100 µM
CAKI-1 renal
  TGI: > 100 µM
SF-295 CNS
  TGI: > 100 µM
OVCAR-8 ovarian
  TGI: > 100 µM
OVCAR-5 ovarian
  TGI: > 100 µM
UACC-257 melanoma
  TGI: > 100 µM
SF-268 CNS
  TGI: > 100 µM
SNB-19 CNS
  TGI: > 100 µM
EKVX NSCLC
  TGI: > 100 µM
NCI-H522 lung
  TGI: 57 µM
U251 CNS
  TGI: > 100 µM
MOLT-4 leukemia
  TGI: > 100 µM
SK-MEL-5 melanoma
  TGI: > 100 µM
SN12C renal
  TGI: > 100 µM
NCI-H226 lung
  TGI: > 100 µM
A498 renal
  TGI: > 100 µM
CCRF-CEM leukemia
  TGI: > 100 µM
HS 578T breast
  TGI: > 100 µM
SW-620 colon
  TGI: > 100 µM
NCI-H460 lung
  TGI: > 100 µM
HL-60(TB) leukemia
  TGI: > 100 µM
MDA-MB-435
  TGI: > 100 µM
OVCAR-3 ovarian
  TGI: > 100 µM
HOP-92 NSCLC
  TGI: > 100 µM
COLO 205 colon
  TGI: 48.6 µM
K-562 leukemia
  TGI: > 100 µM
BT-549 breast
  TGI: > 100 µM
TK-10 renal
  TGI: > 100 µM
HCT-15 colon
  TGI: > 100 µM
KM12 colon
  TGI: > 100 µM
MCF7 breast
  TGI: > 100 µM
PC-3 prostate
  TGI: > 100 µM
MALME-3M melanoma
  TGI: 0.246 µM
IGROV1 ovarian
  TGI: > 100 µM
DU-145 prostate
  TGI: > 100 µM
UO-31 renal
  TGI: > 100 µM

## O=[N+]([O-])c1cccc([N+](=O)[O-])c1Cl
NCI-H23 lung
  TGI: 40.5 µM
SR leukemia
  TGI: > 100 µM
OVCAR-4 ovarian
  TGI: 45.6 µM
MDA-MB-231 breast
  TGI: 51.7 µM
SF-539 CNS
  TGI: 35 µM
M14 melanoma
  TGI: > 100 µM
RXF 393 renal
  TGI: 38.3 µM
HT29 colon
  TGI: 45.1 µM
UACC-62 melanoma
  TGI: 42.9 µM
LOX IMVI melanoma
  TGI: 6.88 µM
HCT-116 colon
  TGI: > 100 µM
ACHN renal
  TGI: 31.4 µM
786-0 renal
  TGI: > 100 µM
HOP-62 NSCLC
  TGI: > 100 µM
A549 NSCLC
  TGI: 30 µM
T-47D breast
  TGI: 14.7 µM
SK-MEL-28 melanoma
  TGI: 42 µM
CAKI-1 renal
  TGI: 7.68 µM
SF-295 CNS
  TGI: 34.8 µM
OVCAR-8 ovarian
  TGI: 31.5 µM
OVCAR-5 ovarian
  TGI: 43.1 µM
UACC-257 melanoma
  TGI: 23.6 µM
SF-268 CNS
  TGI: 46.5 µM
SNB-19 CNS
  TGI: 33.2 µM
EKVX NSCLC
  TGI: 46.4 µM
NCI-H522 lung
  TGI: 29.5 µM
U251 CNS
  TGI: 25.8 µM
MOLT-4 leukemia
  TGI: > 100 µM
SK-MEL-5 melanoma
  TGI: 32.7 µM
SN12C renal
  TGI: 79.9 µM
NCI-H226 lung
  TGI: 68.4 µM
A498 renal
  TGI: 38.8 µM
HS 578T breast
  TGI: 82.3 µM
SK-MEL-2 melanoma
  TGI: 43.9 µM
SW-620 colon
  TGI: > 100 µM
RPMI-8226 leukemia
  TGI: > 100 µM
SNB-75 CNS
  TGI: 67.5 µM
NCI-H460 lung
  TGI: > 100 µM
HL-60(TB) leukemia
  TGI: 24.2 µM
MDA-MB-435
  TGI: 35.3 µM
OVCAR-3 ovarian
  TGI: 4.84 µM
HOP-92 NSCLC
  TGI: 45.3 µM
COLO 205 colon
  TGI: 91.2 µM
K-562 leukemia
  TGI: > 100 µM
TK-10 renal
  TGI: 41.3 µM
HCT-15 colon
  TGI: 31.6 µM
KM12 colon
  TGI: 29.5 µM
MCF7 breast
  TGI: > 100 µM
PC-3 prostate
  TGI: 38.7 µM
MALME-3M melanoma
  TGI: 34.7 µM
IGROV1 ovarian
  TGI: 30.6 µM
NCI/ADR-RES ovarian
  TGI: 57.4 µM
DU-145 prostate
  TGI: 11.4 µM
UO-31 renal
  TGI: 2.86 µM
